# In PubChem BioAssay AID248 (DTP/NCI, 2004):
# Toxic doses and inconclusive results are not listed.
# System: L1210 leukemia ip in BDF1 mice, survival T/C
# Experiment: NCI In Vivo Anticancer Drug Screen. Data for tumor model L1210 Leukemia (intraperitoneal) in B6D2F1 (BDF1) mice
# Conditions: endpoint: mean survival time, higher = longer survival
# Procedure, shortened: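 Transplantable tumor model; survival measured in treated vs vehicle control mice. Value = treated/control.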
# [1] = dose: 100.0 mg/kg/injection, schedule: Q04DX003 (ip), vehicle: Klucel (hydroxypropylcellulose) (HPC)
# [2] = dose: 200.0 mg/kg/injection, schedule: Q04DX003 (ip), vehicle: Klucel (hydroxypropylcellulose) (HPC)
# [3] = dose: 400.0 mg/kg/injection, schedule: Q01DX009 (ip), vehicle: Klucel (hydroxypropylcellulose) (HPC)
# [4] = dose: 400.0 mg/kg/injection, schedule: Q04DX003 (ip), vehicle: Klucel (hydroxypropylcellulose) (HPC)
# [5] = dose: 100.0 mg/kg/injection, schedule: Q01DX001 (ip), vehicle: saline
# [6] = dose: 200.0 mg/kg/injection, schedule: Q01DX001 (ip), vehicle: saline
# [7] = dose: 400.0 mg/kg/injection, schedule: Q01DX001 (ip), vehicle: saline
# [8] = dose: 100.0 mg/kg/injection, schedule: Q01DX009 (ip), vehicle: Klucel (hydroxypropylcellulose) (HPC)
# [9] = dose: 200.0 mg/kg/injection, schedule: Q01DX009 (ip), vehicle: Klucel (hydroxypropylcellulose) (HPC)
smiles,measurement,setting,value
Cc1c(C(C)(C)C)cc(CC(C)C)c(O)c1-c1c(C)c(CC(C)C)cc(C(C)(C)C)c1O,T/C,"dose: 100.0 mg/kg/injection, schedule: Q04DX002 (ip), vehicle: Klucel (hydroxypropylcellulose) (HPC)",98 % of control
same,T/C,"dose: 200.0 mg/kg/injection, schedule: Q04DX002 (ip), vehicle: Klucel (hydroxypropylcellulose) (HPC)",91 % of control
same,T/C,"dose: 400.0 mg/kg/injection, schedule: Q04DX002 (ip), vehicle: Klucel (hydroxypropylcellulose) (HPC)",94 % of control
CCN(CC)c1ccc(C(=O)OC(C)CNCC(C)CCCC(C)C)cc1 (centres undefined),T/C,"dose: 75.0 mg/kg/injection, schedule: Q01DX001 (ip), vehicle: carboxymethylcellulose (CMC)",90 % of control
same,T/C,"dose: 150.0 mg/kg/injection, schedule: Q01DX001 (ip), vehicle: carboxymethylcellulose (CMC)",94 % of control
same,T/C,"dose: 300.0 mg/kg/injection, schedule: Q01DX001 (ip), vehicle: carboxymethylcellulose (CMC)",93 % of control
CCOC(=O)c1ccc(N=NN(C)C(C)CC)cc1 (centres undefined),T/C,"dose: 100.0 mg/kg/injection, schedule: Q01DX001 (ip), vehicle: Klucel (hydroxypropylcellulose) (HPC)",113 % of control
same,T/C,[1],102 % of control
same,T/C,"dose: 200.0 mg/kg/injection, schedule: Q01DX001 (ip), vehicle: Klucel (hydroxypropylcellulose) (HPC)",101 % of control
same,T/C,[2],118 % of control
same,T/C,"dose: 400.0 mg/kg/injection, schedule: Q01DX001 (ip), vehicle: Klucel (hydroxypropylcellulose) (HPC)",124 % of control
same,T/C,[3],166 % of control
same,T/C,[4],122 % of control
Nc1ccc(P(=O)(Nc2cccc(Cl)c2)Nc2cccc(Cl)c2)cc1,T/C,"dose: 100.0 mg/kg/injection, schedule: Q04DX003 (ip), vehicle: acetone",108 % of control
same,T/C,"dose: 200.0 mg/kg/injection, schedule: Q04DX003 (ip), vehicle: acetone",92 % of control
same,T/C,"dose: 400.0 mg/kg/injection, schedule: Q04DX003 (ip), vehicle: acetone",92 % of control
CC(=O)OCc1ccc2ccccc2c1,T/C,"dose: 100.0 mg/kg/injection, schedule: Q04DX003 (ip), vehicle: saline with Tween-80",101 % of control
same,T/C,"dose: 200.0 mg/kg/injection, schedule: Q04DX003 (ip), vehicle: saline with Tween-80",106 % of control
same,T/C,"dose: 400.0 mg/kg/injection, schedule: Q04DX003 (ip), vehicle: saline with Tween-80",101 % of control
O=COC1CC2CCC1C2 (centres undefined),T/C,"dose: 100.0 mg/kg/injection, schedule: Q04DX002 (ip), vehicle: saline",95 % of control
same,T/C,"dose: 200.0 mg/kg/injection, schedule: Q04DX002 (ip), vehicle: saline",98 % of control
same,T/C,"dose: 400.0 mg/kg/injection, schedule: Q04DX002 (ip), vehicle: saline",100 % of control
CNC(=O)C(c1ccccc1)C(O)(c1ccccc1)c1ccccc1 (centres undefined),T/C,"dose: 50.0 mg/kg/injection, schedule: Q01DX001 (ip), vehicle: saline",96 % of control
same,T/C,[5],93 % of control
same,T/C,[6],98 % of control
same,T/C,[7],87 % of control
CC(=O)OCc1c(COC(C)=O)c(-c2ccc(Cl)cc2)n2c1CCC2,T/C,"dose: 12.5 mg/kg/injection, schedule: Q01DX009 (ip), vehicle: Klucel (hydroxypropylcellulose) (HPC)",95 % of control
same,T/C,"dose: 25.0 mg/kg/injection, schedule: Q01DX009 (ip), vehicle: Klucel (hydroxypropylcellulose) (HPC)",102 % of control
same,T/C,"dose: 50.0 mg/kg/injection, schedule: Q01DX009 (ip), vehicle: Klucel (hydroxypropylcellulose) (HPC)",117 % of control
Cc1cc(Cl)ccc1NC(=O)c1ccccc1,T/C,[8],98 % of control
same,T/C,[1],103 % of control
same,T/C,[9],105 % of control
same,T/C,[2],92 % of control
same,T/C,[3],96 % of control
same,T/C,[4],97 % of control
CNC(=O)c1c2c(nc3ccccc13)CCCC2,T/C,[5],102 % of control
same,T/C,[6],102 % of control
same,T/C,[7],111 % of control
CC(Cl)CN(CC(C)Cl)C(=O)Oc1ccccc1[N+](=O)[O-] (centres undefined),T/C,[8],93 % of control
same,T/C,[9],104 % of control
same,T/C,[3],93 % of control
CCOC(=O)Cc1cnc(C)[nH]c1=O,T/C,[8],95 % of control
same,T/C,[9],101 % of control
same,T/C,[3],96 % of control
CC(=O)NC(C)(S)C(=O)O (centres undefined),T/C,[5],103 % of control
same,T/C,[6],96 % of control
same,T/C,[7],107 % of control
CCCCN(C(C)=O)c1nnc(NC(C)=O)s1,T/C,"dose: 100.0 mg/kg/injection, schedule: Q04DX002 (ip), vehicle: saline with Tween-80",102 % of control
same,T/C,"dose: 200.0 mg/kg/injection, schedule: Q04DX002 (ip), vehicle: saline with Tween-80",98 % of control
same,T/C,"dose: 400.0 mg/kg/injection, schedule: Q04DX002 (ip), vehicle: saline with Tween-80",98 % of control
OC1CCCC[CH]1[Hg][Cl] (centres undefined),T/C,"dose: 5.0 mg/kg/injection, schedule: Q01DX001 (ip), vehicle: saline",95 % of control
NCCCSc1ccc(Br)cc1,T/C,"dose: 75.0 mg/kg/injection, schedule: Q01DX001 (ip), vehicle: other",102 % of control
same,T/C,"dose: 150.0 mg/kg/injection, schedule: Q01DX001 (ip), vehicle: other",96 % of control
same,T/C,"dose: 300.0 mg/kg/injection, schedule: Q01DX001 (ip), vehicle: other",92 % of control
